The record followed here is patent US20220008409A1, “CANCER COMBINATION THERAPY USING QUINOLINE CARBOXAMIDE DERIVATIVE” (KABUSHIKI KAISHA YAKULT HONSHA, priority 2018, published 2022).

One test relates to MDA-MB-231 cells. Put plainly: Combination effect of STX-1159 and mTOR inhibitor, WST-8 assay. The class given is cell-based, Human. To be noted: in combination with STX-1159, 48 hours. On the procedure: Human breast cell line MDA-MB-231 cells or MDA-MB-468 cells (in the case of rapamycin) were inoculated on a 96-well plate to 2.5×10^3/100 μL/well or 1.0×10^3/100 μL/well, and cultured under conditions of 5% CO2 and 37° C. To the control group was added DMSO, so as to be a final concentration of 0.05%. Subsequently, the cells were cultured under conditions of 5% CO2 and 37° C. for 48 hours, and the viable cell count was then evaluated by WST-8 assay. […] The absorbance of water-soluble formazan generated by enzymatic activity of mitochondria in cells was measured at 450 nm using a microplate reader (Molecular Devices, Model: SpectraMax Plus).
Human breast cell line MDA-MB-231 cells or MDA-MB-468 cells (in the case of rapamycin) were inoculated on a 96-well plate so as to be 2.5×10^3/100 μL/well or 1.0×10^3/100 μL/well, respectively. The cells were incubated in a CO2 incubator at 37° C. After 24 hours, the supernatant was discarded, and 80 μL of a culture medium for assay was added. […] The mixture was left standing in a CO2 incubator at 37° C. for 48 hours, the supernatant was then removed, and the mixture was washed once with 100 μL of PBS(−). A WST-8 solution diluted by 10 times with the medium for assay was added at 100 μL/well, and the absorbance was measured at a wavelength of 450 nm using a plate reader. CI was calculated from the measured value.
(Tetrazolium assays rely on reduction of a dye to a coloured formazan, in cell work by metabolically active cells.)
In the case of `COC(=O)Nc1ccc(-c2nc(N3CCOCC3)c3cnn(C4CCN(Cc5cccnc5)CC4)c3n2)cc1` [WYE-687], the CI amounted to 0.85 and the Combination effect result is listed as “Moderate synergetic effect (0.7 < CI ≤ 0.85)”.

Regarding `O=C1NC(=O)/C(=C/c2ccc3nccc(-c4ccncc4)c3c2)S1` [GSK1059615], the CI came out at 0.64 and the Combination effect entry is on record as “Synergetic effect (0.3 < CI ≤ 0.7)”.

As to `c1cncc(CN2CCC(n3ncc4c(N5CCOCC5)nc(-c5ccc6[nH]ccc6c5)nc43)CC2)c1` [WAY-600], the CI is 0.64 and the Combination effect entry is recorded as “Synergetic effect (0.3 < CI ≤ 0.7)”.

For `Oc1cccc(-c2nc(N3CCOCC3)c3oc4ncccc4c3n2)c1` [PI-103], the CI is recorded as 0.60 and the Combination effect result is on record as “Synergetic effect (0.3 < CI ≤ 0.7)”.

Consider `COc1ccc(-c2ccc3c(N4CCOCC4)nc(N4C[C@@H](C)O[C@@H](C)C4)nc3n2)cc1CO` [KU-0063794], for which the CI came to 0.36 and the Combination effect result is on record as “Synergetic effect (0.3 < CI ≤ 0.7)”.

With `CCC(=O)N1CCN(c2ccc(-n3c(=O)ccc4cnc5ccc(-c6cnc7ccccc7c6)cc5c43)cc2C(F)(F)F)CC1` [Torin 1], the CI was found to be 0.68 and the Combination effect result is “Synergetic effect (0.3 < CI ≤ 0.7)”.

Take `CC(C)n1nc(-c2ccc3oc(N)nc3c2)c2c(N)ncnc21` [INK 128]: the CI amounted to 0.56 and the Combination effect result is “Synergetic effect (0.3 < CI ≤ 0.7)”.

On to `CNC(=O)Nc1ccc(-c2nc(N3CC4CCC(C3)O4)c3cnn(C4CCC5(CC4)OCCO5)c3n2)cc1` [WYE-125132], for which the CI worked out at 0.40 and the Combination effect entry is listed as “Synergetic effect (0.3 < CI ≤ 0.7)”.

`Nc1ccc(-c2ccc3ncc4ccc(=O)n(-c5cccc(C(F)(F)F)c5)c4c3c2)cn1` [Torin 2]: the CI is listed as 0.66 and the Combination effect result is listed as “Synergetic effect (0.3 < CI ≤ 0.7)”.

As for `Cc1c(CN2CCN(C(=O)[C@H](C)O)CC2)sc2c(N3CCOCC3)nc(-c3cnc(N)nc3)nc12` [GDC-0980(RG7422)], the CI turned out to be 0.86 and the Combination effect result was “Light synergetic effect (0.85 < CI ≤ 0.9)”.

As for `CN(C)C1CCN(C(=O)c2ccc(NC(=O)Nc3ccc(-c4nc(N5CCOCC5)nc(N5CCOCC5)n4)cc3)cc2)CC1` [PF-05212384(PKI-587)], the CI is reported as 0.63 and the Combination effect result is reported as “Synergetic effect (0.3 < CI ≤ 0.7)”.

On to `COc1ccc(-c2cc3c(C)nc(N)nc3n([C@H]3CC[C@H](OCCO)CC3)c2=O)cn1` [PF-04691502], for which the CI was 0.73 and the Combination effect entry is given as “Moderate synergetic effect (0.7 < CI ≤ 0.85)”.

`CNC(=O)c1cccc(-c2ccc3c(N4CCOC[C@@H]4C)nc(N4CCOC[C@@H]4C)nc3n2)c1` [AZD2014]: the CI is 0.51 and the Combination effect entry is “Synergetic effect (0.3 < CI ≤ 0.7)”.

With `CC(C)n1nc(-c2cc3cc(O)ccc3[nH]2)c2c(N)ncnc21` [PP242], the CI was found to be 0.84 and the Combination effect result was “Moderate synergetic effect (0.7 < CI ≤ 0.85)”.

For `Nc1ncnc2c1c(-c1cnc3[nH]ccc3c1)nn2C1CCCC1` [PP-121], the CI stood at 0.88 and the Combination effect entry is on record as “Light synergetic effect (0.85 < CI ≤ 0.9)”.

On to `COc1cccc2cc(-c3nc([C@H]4CC[C@H](C(=O)O)CC4)n4ncnc(N)c34)[nH]c12` [OSI-027], for which the CI was 0.49 and the Combination effect result was “Synergetic effect (0.3 < CI ≤ 0.7)”.

Take `COc1ncc(-c2ccc3nccc(-c4ccnnc4)c3c2)cc1NS(=O)(=O)c1ccc(F)cc1F` [GSK2126458]: the CI came to 0.63 and the Combination effect result is “Synergetic effect (0.3 < CI ≤ 0.7)”.

For `COc1ccc(-c2ccc3c(N4CCOC[C@@H]4C)nc(N4CCOC[C@@H]4C)nc3n2)cc1CO` [AZD8055], the CI was 0.36 and the Combination effect entry is given as “Synergetic effect (0.3 < CI ≤ 0.7)”.

Another test deals with FTC-133.
Experiment: not given
The conditions noted are these: in combination with STX-1159, 72 hours. From the text: (§1) NCI-H2228, NCI-H1975, SK-BR-3, Hep3B, MCF-7, Caov-3, A2058, K562 and SUP-B15 were purchased from American Type Culture Collection, SAS and HuH-7 were purchased from National Institutes of Biomedical Innovation, Health and Nutrition, and K1, FTC-133 and Ishikawa were purchased European Collection of Authenticated Cell Cultures. […] Fetal bovine serum (hereinafter, abbreviated as FBS) and MCDB 105 culture medium were purchased from Sigma Aldrich (Cat. Nos. 172012 and 117-500), and RMPI1640 culture medium, DMEM medium, Ham's F-12 medium, MEM medium and IMDM culture medium were purchased Thermo Fisher Scientific (Cat. Nos. A1049101, 11995-065, 11765-054, 11095-080 and 12440-053).
The cells were inoculated on a 96-well plate to the density shown in Table 2, and were cultured under conditions of 5% CO2 and 37° C. The agents were singly added one day after the cells were inoculated. To the control group was added DMSO, so as to be a final concentration of 0.05%. Subsequently, the cells were cultured under conditions of 5% CO2 and 37° C. for the time shown in Table 2, and the number living cells was evaluated by WST-8 assay. That is, 10 μL of a WST-8 kit solution (Kishida Chemical Co., ltd, Cat. No. 260-96162) was added to each well, and the cells were cultured under conditions of 5% CO2 and 37° C. for 1 to 2 hours. The absorbance of water-soluble formazan generated by enzymatic activity of mitochondria in cells was measured at 450 nm using a microplate reader (Molecular Devices, Model: SpectraMax Plus). This was evaluated as the viable cell count to calculate a 50% cell growth inhibitory concentration (hereinafter, abbreviated as IC50).
The cells were inoculated on a 96-well plate so as to be the density shown in Table 2, and were cultured under conditions of 5% CO2 and 37° C. One day after the cells were inoculated, for single groups, STX-1159 and the agents were each added so as to be a final concentration which is ¼ times, ½ times, 1 time, 2 times or 4 times the reference dose, and for combination groups, STX-1159 and the agents were added so as to be a final concentration where STX-1159 and the agents combined were each ¼ times, ½ times, 1 time, 2 times or 4 times the reference dose. To the control group was added DMSO, so as to be a final concentration of 0.1%. Subsequently, the cells were cultured under conditions of 5% CO2 and 37° C. for the time shown in Table 2, and the number living cells was measured by WST-8 assay. The fraction affected (hereinafter, abbreviated as fa) was calculated from the following expression:
(§2) fa=1−(viable cell count in agent exposure group)/(viable cell count in control group).
(§3) By a median-effect method using combination effect analyzing software CalcuSyn (HULINKS), the combination index (hereinafter, abbreviated as CI) was calculated from fa obtained when STX-1159 and the agents were exposed alone or in combination. Evaluation of the combination effect was based on grading by CI in Table 4. In calculation of CI, the average of the values from two or more experiments was employed.
Regarding `COc1cc2c(Nc3ccc(Br)cc3F)ncnc2cc1OCC1CCN(C)CC1` [Vandetanib, vandetanib], the CI was 0.75 and the Combination effect result is listed as “Moderate synergetic effect (0.7 < CI ≤ 0.85)”.

Test system in another test: not listed separately
Put plainly: Combination effect by median-effect method, summary over the cell lines of Example 1. The class given is cell-based. The conditions noted are these: in combination with STX-1159; summary of Table 5. As to the method: The fraction affected (hereinafter, abbreviated as fa) was calculated from the following expression: fa=1-(viable cell count in agent exposure group)/(viable cell count in control group). […] Evaluation of the combination effect was based on grading by CI in Table 4. In calculation of CI, the average of the values from two or more experiments was employed.
With `C[C@@H](Oc1cc(-c2cnn(C3CCNCC3)c2)cnc1N)c1c(Cl)ccc(F)c1Cl` [Crizotinib], the “combination effect by the median-effect method” value is listed as “synergetic effect”.

As to `Cc1cc(Nc2ncc(Cl)c(Nc3ccccc3S(=O)(=O)C(C)C)n2)c(OC(C)C)cc1C1CCNCC1` [Ceritinib, ceritinib], the “combination effect by the median-effect method” value is “synergetic effect”.

In the case of `CC(C)(C)c1nc(-c2cccc(NS(=O)(=O)c3c(F)cccc3F)c2F)c(-c2ccnc(N)n2)s1` [Dabrafenib, dabrafenib], the “combination effect by the median-effect method” value is “synergetic effect”.

A further test has as its system NCI-H2228. The test can be described thus: Combination effect by median-effect method, WST-8 assay. It counts as cell-based, Human. To be noted: in combination with STX-1159, 72 hours.
Description: as §1
(§4) The agents were singly added one day after the cells were inoculated. […] The absorbance of water-soluble formazan generated by enzymatic activity of mitochondria in cells was measured at 450 nm using a microplate reader (Molecular Devices, Model: SpectraMax Plus). This was evaluated as the viable cell count to calculate a 50% cell growth inhibitory concentration (hereinafter, abbreviated as IC50). The reference dose of each agent was set based on IC50 (Table 3).
(§5) One day after the cells were inoculated, for single groups, STX-1159 and the agents were each added so as to be a final concentration which is ¼ times, ½ times, 1 time, 2 times or 4 times the reference dose, and for combination groups, STX-1159 and the agents were added so as to be a final concentration where STX-1159 and the agents combined were each ¼ times, ½ times, 1 time, 2 times or 4 times the reference dose. […] The fraction affected (hereinafter, abbreviated as fa) was calculated from the following expression:
as §2, §3
As to `C[C@@H](Oc1cc(-c2cnn(C3CCNCC3)c2)cnc1N)c1c(Cl)ccc(F)c1Cl` [Crizotinib], the CI is on record as 0.50 and the Combination effect entry was “Synergetic effect (0.3 < CI ≤ 0.7)”.

For the compound `Cc1cc(Nc2ncc(Cl)c(Nc3ccccc3S(=O)(=O)C(C)C)n2)c(OC(C)C)cc1C1CCNCC1` [Ceritinib, ceritinib], the CI is reported as 0.34 and the Combination effect result was “Synergetic effect (0.3 < CI ≤ 0.7)”.

Another test relates to A2058. The description is as above. To be noted: in combination with STX-1159, 72 hours. The class given is cell-based, Human.
Description: as §1, §4, §5, §2, §3
Take `CC(=O)Nc1cccc(-n2c(=O)n(C3CC3)c(=O)c3c(Nc4ccc(I)cc4F)n(C)c(=O)c(C)c32)c1` [Trametinib, trametinib]: the CI is recorded as 0.78 and the Combination effect entry was “Moderate synergetic effect (0.7 < CI ≤ 0.85)”.

On to `CC(C)(C)c1nc(-c2cccc(NS(=O)(=O)c3c(F)cccc3F)c2F)c(-c2ccnc(N)n2)s1` [Dabrafenib, dabrafenib], for which the CI is on record as 0.73 and the Combination effect result is “Moderate synergetic effect (0.7 < CI ≤ 0.85)”.

The subject of another test is K1. Described as above. To be noted: in combination with STX-1159, 72 hours. It counts as cell-based, Human.
Description: as §1, §4, §5, §2, §3
Regarding `COc1cc2c(Nc3ccc(Br)cc3F)ncnc2cc1OCC1CCN(C)CC1` [Vandetanib, vandetanib], the CI is given as 0.69 and the Combination effect result is recorded as “Synergetic effect (0.3 < CI ≤ 0.7)”.
